Results from patent US20190022117A1, “COMBINATION THERAPY” (NuCana plc, priority 2015, published 2019).

Experiments:
[1] = ProGem1 clinical study (NUC-1031 alone), plasma pharmacokinetics; type: in vivo, human
Description: ProGem1 was a first-time-in-human (FTIH), phase I, open label, two stage study to investigate the safety, tolerability, clinical efficacy, pharmacokinetics (PK) and pharmacodynamics (PD) of NUC-1031 given in two parallel dosing schedules in subjects with advanced solid malignancies (EudraCT Number: 2011-005232-26). Subjects had the following tumour types at study entry: colorectal cancer (7 subjects), unknown primary (3), ovarian cancer (12), breast cancer (4), pancreatic cancer (9), cholangiocarcinoma (7), endometrial cancer (3), cervical cancer (2), lung cancer (7), mesothelioma (3), oesophageal cancer (3), cancer of the fallopian tube (1), trophoblast (1), renal cancer (1), gastric cancer (1), anal cancer (1), cancer of the thymus (1) and osteosarcoma (1).

[2] = system: SKOV3 cells; test: Sulforhodamine B (SRB) assay, single agent; type: cell-based; conditions: 24 hours exposure, SRB assay on day 4
Description: SKOV3 cells were purchased from American Type Culture Collection (ATCC). They were cultured at 37° C. and 5% CO2 in Gibco™ RMPI Medium 1640+GlutaMAX™-I (Life Technologies; 61870-010) with 10% Gibco™ FBS (Life Technologies; 10270-106) and 1% Gibco™ Penicillin-Streptomycin (Life Technologies; Ser. No. 15/140,122), known as complete medium, in a cell culture flask. Cisplatin was purchased from TEVA UK Limited (PL 00289/1146). Fluvastatin and Sulforaphane were both purchased from Merck Millipore Corporation (Catalogue numbers 344096 and 574215 respectively). (S)-NUC-1031 was provided by NuCana® Ltd.
SKOV3 cells were plated at 250 cells in 200 μl per well in the middle 60 wells of Costar® 3596 96-well plates, with the outer 36 wells filled with 200 μl PBS each. The cells were allowed to grow in complete medium for 48 hours before different drug compounds were added in. For single agent, cisplatin, (S)-NUC-1031, fluvastatin and sulforaphane in complete medium at 10 different concentrations were added into the middle 60 wells (Day 0). Each concentration was loaded in sextuplicate. Cells were exposed to the compounds for 24 hours and the compounds were replaced by pure complete medium. The experiment with fluvastatin was repeated with 4-day exposure instead of 24 hours. The plates were fixed with 50 μl 25% TCA solution at 4° C. for 60 minutes on day 4 after the drug compounds were added for Sulforhodamine B assay (see below).
After adding the TCA solution, the plates were washed under running tap water 10 times and were allowed to dry in the oven at 50° C. The cells were then stained with 50 μl SRB dye, and the dye was washed off with 1% glacial acetic acid for 4 times 30 minutes after SRB addition. The plates were then dried in the oven. SRB dye was allowed to dissolve in 150 μl 10 mM Tris buffer solution for 60 minutes on a rocker. The plates were read on Biohit BP800 Microplate Reader (Biohit Healthcare) and the absorbance was measured at 540 nm. […]

C[C@H](NP(=O)(OC[C@H]1O[C@@H](n2ccc(N)nc2=O)C(F)(F)[C@H]1O)Oc1ccccc1)C(=O)OCc1ccccc1 (stereo partly drawn) [NUC-1031, 2′-Deoxy-2′,2′-difluoro-D-cytidine-5′-O-[phenyl (benzoxy-L-alaninyl)] phosphate]
levels of the metabolite dFdU relative to gemcitabine ([1]; ProGem1, compared with levels normally associated with gemcitabine): less than half | clearance ([1]; human, plasma, ProGem1 (n = 67), NUC-1031 as a single agent): 86.7 mL/min | Cmax ([1]; human, plasma, ProGem1 (n = 67), NUC-1031 as a single agent, no normalisation): 66.5 µg/mL | AUC(0-t) ([1]; human, plasma, ProGem1 (n = 67), NUC-1031 as a single agent, no normalisation, read-out: Mean AUC0-24, plasma NUC-1031): 66.5 µg·h/mL | half-life ([1]; human, plasma, ProGem1 (n = 67), NUC-1031 as a single agent, read-out: Mean terminal t1/2, plasma NUC-1031 (converted)): 54 min | Tmax ([1]; human, plasma, ProGem1 (n = 67), NUC-1031 as a single agent, read-out: Median Tmax, plasma NUC-1031): 30 min | IC50 [2]: could not be calculated due to unobservable inhibitory effects
